Laboratory results from patent publication US8927531B2, “Indanyloxydihydrobenzofuranylacetic acids” (Boehringer Ingelheim International GmbH, priority 2013, dated 2015).

biological target: human GPR40 receptor (Homo sapiens, UniProt O14842); assay: IP1 accumulation measurements using the IPOne assay system in 1321N1 cells stably expressing human GPR40 receptor; format: cell-based; settings: stimulation 1 h at 37° C.
Protocol: IP1 accumulation measurements using the IPOne assay system—1321N1 cells stably expressing human GPR40 receptor (Euroscreen, Belgium) are seeded 24 h before the assay in white 384-well plates in culture medium containing 10% FCS, 1% Na-Pyruvate and 400 μg/mL G418. IP1 is assayed according to the manufacturer's description (Cisbio Bioassays, France). In brief, the assay is started by substitution of the culture medium by stimulation buffer (Hepes 10 mM, CaCl2 1 mM, MgCl2 0.5 mM, KCl 4.2 mM, NaCl 146 mM, glucose 5.5 mM and LiCl 50 mM, pH 7.4). Cells are stimulated for 1 h at 37° C., 5% CO2 by addition of the compounds that are diluted in stimulation buffer containing LiCl. Assays are stopped by adding HTRF-conjugates (IP1-d2 and Anti-IP1 cryptate Tb) and lysis buffer, provided by the manufacturer. After an incubation time of 1 h at room temperature plates are measured using an EnVision™, Perkin Elmer. The obtained fluorescence ratios at 665/615 […] are then used to calculate the pEC50 values using Assay Explorer 3.3 Software (Accelrys, Inc.) by interpolation using an IP1 reference curve and subsequent sigmoidal curve fitting allowing for a variable hill slope.

Chain of human GPR40 receptor (O14842 whole entry): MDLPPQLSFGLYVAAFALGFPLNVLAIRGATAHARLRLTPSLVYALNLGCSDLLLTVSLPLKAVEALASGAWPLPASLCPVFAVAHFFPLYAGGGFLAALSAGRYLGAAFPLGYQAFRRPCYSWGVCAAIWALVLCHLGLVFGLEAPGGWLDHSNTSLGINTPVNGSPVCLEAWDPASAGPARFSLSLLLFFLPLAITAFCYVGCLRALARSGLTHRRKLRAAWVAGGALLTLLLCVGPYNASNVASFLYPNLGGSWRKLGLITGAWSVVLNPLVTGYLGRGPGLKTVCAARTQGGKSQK

Structure (SMILES) | EC50 [nM]
CN1CCN(Cc2c(C(F)(F)F)ccc3c2CC[C@H]3Oc2ccc3c(c2)OC[C@H]3CC(=O)O)CC1=O [Example 26, {(S)-6-[(R)-4-(4-Methyl-3-oxo-piperazin-1-ylmethyl)-5-trifluoromethyl-indan-1-yloxy]-2,3-dihydro-benzofuran-3-yl}-acetic acid] | 26
CC1(O)CCN(Cc2c(C(F)(F)F)ccc3c2CC[C@H]3Oc2ccc3c(c2)OC[C@H]3CC(=O)O)CC1 [Example 14, {(S)-6-[(R)-4-(4-Hydroxy-4-methyl-piperidin-1-ylmethyl)-5-trifluoromethyl-indan-1-yloxy]-2,3-dihydro-benzofuran-3-yl}-acetic acid] | 15
CC(C)OC(=O)N1CCN(Cc2c(C(F)(F)F)ccc3c2CC[C@H]3Oc2ccc3c(c2)OC[C@H]3CC(=O)O)CC1 [Example 22, {(S)-6-[(R)-4-(4-Isopropoxycarbonyl-piperazin-1-ylmethyl)-5-trifluoromethyl-indan-1-yloxy]-2,3-dihydro-benzofuran-3-yl}-acetic acid] | 14
O=C(O)C[C@@H]1COc2cc(O[C@@H]3CCc4c3ccc(C(F)(F)F)c4CN3CCC(CO)CC3)ccc21 [Example 13, {(S)-6-[(R)-4-(4-Hydroxymethyl-piperidin-1-ylmethyl)-5-trifluoromethyl-indan-1-yloxy]-2,3-dihydro-benzofuran-3-yl}-acetic acid] | 9
O=C(O)C[C@@H]1COc2cc(O[C@@H]3CCc4c3ccc(C(F)(F)F)c4CN3CCCC3)ccc21 [Example 4, {(S)-6-[(R)-4-Pyrrolidin-1-ylmethyl-5-trifluoromethyl-indan-1-yloxy]-2,3-dihydro-benzofuran-3-yl}-acetic acid] | 92
O=C(O)C[C@@H]1COc2cc(O[C@@H]3CCc4c3ccc(C(F)(F)F)c4CN3CCC4(CCCO4)CC3)ccc21 [Example 11, {(S)-6-[(R)-4-(1-Oxa-8-aza-spiro[4.5]dec-8-ylmethyl)-5-trifluoromethyl-indan-1-yloxy]-2,3-dihydro-benzofuran-3-yl}-acetic acid] | 6
C[C@@H]1CN(Cc2c(C(F)(F)F)ccc3c2CC[C@H]3Oc2ccc3c(c2)OC[C@H]3CC(=O)O)C[C@H](C)O1 [Example 18, {(S)-6-[(R)-4-(cis-2,6-Dimethyl-morpholin-4-ylmethyl)-5-trifluoromethyl-indan-1-yloxy]-2,3-dihydro-benzofuran-3-yl}-acetic acid] | 11
O=C(O)C[C@@H]1COc2cc(O[C@@H]3CCc4c3ccc(C(F)(F)F)c4CN3CC4CC4C3)ccc21 (stereo partly drawn) [Example 12, {(S)-6-[(R)-4-(3-Aza-bicyclo[3.1.0]hex-3-ylmethyl)-5-trifluoromethyl-indan-1-yloxy]-2,3-dihydro-benzofuran-3-yl}-acetic acid] | 20
